Type in all cases: cell-based, HIV-1
The subject of assay [1] is HIV-IIIb IN T174I BT. The assay is described as follows: Antiviral assay in MT4 cells, HIV-IIIb IN T174I BT virus (from viral breakthrough). The following applies: Human immunodeficiency virus 1, IIIB, MT4, 120 h, read-out: T174I BT EC50, MT4 cells, HIV-IIIb IN T174I BT (viral breakthrough), 5 days, CellTiter-Glo. As to the method:
(§1) Antiviral Assay in MT4 Cells
(§2) For the antiviral assay, 0.4 μL of 189X test concentration of 3-fold serially diluted compound in DMSO was added to 40 μL of cell growth medium (RPMI 1640, 10% FBS, 1% Penicillin-Streptomycin, 1% L-Glutamine, 1% HEPES) in each well of 384-well plate (10 concentrations) in quadruplicate.
(§3) 1 mL Aliquots of MT4 cells were pre-infected for 3 hours at 37° C. with 25 μL of cell growth medium (mock-infected) or a fresh 1:250 dilution of an HIV-IIIb (wildtype, IN T174I BT, or IN T174I DE) concentrated ABI stock (0.004 m.o.i.). IN T174I BT virus was derived from viral breakthrough (BT) assay as described in Mulato, A.; Hansen, D.; Thielen, A.; Porter, D.; Stepan, G.; White, K.; Daeumer, M.; Cihlar, T.; Yant, S. R. AIDS Research and Human Retrovirues, July 2016, ahead of print. doi:10.1089/aid.2016.0071. IN T174I DE virus was derived from serial passaging with dose escalation (DE) of test compound. Infected and uninfected cells were diluted in cell growth media and 35 μL (2000 cells) was added to each well of the assay plates.
(§4) Assay plates were then maintained in a humidified, 5% CO2 incubator at 37° C. After 5 days of incubation, 25 μl of 2× concentrated CellTiter-Glo™ Reagent (catalog # G7573, Promega Biosciences, Inc., Madison, Wis.) was added to each well of the assay plate. Cell lysis was carried out by incubating at room temperature for 10 minutes and then chemiluminescence was read using an Envision plate reader (PerkinElmer). EC50 values were calculated as the compound concentration that caused a 50% […] in luminescence signal, a measure of HIV-1 replication.
For orientation: ATP-based viability assays read luminescence as a measure of living cells.

For assay [2], the system named is HIV-IIIb IN T174I DE. The assay is described as follows: Antiviral assay in MT4 cells, HIV-IIIb IN T174I DE virus (from dose escalation passaging). The following applies: Human immunodeficiency virus 1, IIIB, MT4, 120 h, read-out: T174I DE EC50, MT4 cells, HIV-IIIb IN T174I DE (dose escalation), 5 days, CellTiter-Glo. As to the method:
as §1, §2, §3, §4

In assay [3] the test system is HIV-IIIb (wildtype). In words: Antiviral assay in MT4 cells, HIV-IIIb wildtype. The following applies: read-out: WT EC50. As to the method:
as §1, §2, §3, §4

Setting [4] is: Human immunodeficiency virus 1, IIIB, MT4, 120 h.
Where [5] appears, read: Human immunodeficiency virus 1, 120 h, MT4 cells, HIV-IIIb wildtype, 5 days, CellTiter-Glo.

SMILES strings stand for the structures. Read-outs that look alike come from different tables or passages of the source.

Turning to `Cc1cc2nc(-c3ccc4c(c3)c(C3CCN(C(=O)OC(C)(C)C)CC3)nn4C)sc2c(-c2ccc(Cl)cc2)c1[C@H](OC(C)(C)C)C(=O)O` [Compound 23, (S)-2-(tert-butoxy)-2-(2-(3-(1-(tert-butoxycarbonyl)piperidin-4-yl)-1-methyl-1H-indazol-5-yl)-7-(4-chlorophenyl)-5-methylbenzo[d]thiazol-6-yl)acetic Acid], the values for the EC50 in assay [1], in assay [2] and in assay [3] (setting [4]) were 987 nM, 356 nM and 99 nM, respectively.
On to `CCOC(=O)N1CCC(c2nn(C)c3ccc(-c4nc5cc(C)c([C@H](OC(C)(C)C)C(=O)O)c(-c6ccc(Cl)cc6)c5s4)cc23)CC1` [Compound 24], for which the results for the EC50 in assay [1], in assay [2] and in assay [3] (setting [4]) were 769 nM, 1090 nM and 16 nM, respectively.
The matching figures for `Cc1cc2nc(-c3ccc4c(c3)c(C3CCN(C5CN(C(=O)OC(C)(C)C)C5)CC3)nn4C)sc2c(-c2ccc(Cl)cc2)c1[C@H](OC(C)(C)C)C(=O)O` [Compound 28, (S)-2-(tert-butoxy)-2-(2-(3-(1-(1-(tert-butoxycarbonyl)azetidin-3-yl)piperidin-4-yl)-1-methyl-1H-indazol-5-yl)-7-(4-chlorophenyl)-5-methylbenzo[d]thiazol-6-yl)acetic Acid]: 1800 nM, 2260 nM and 73 nM.
For the compound `Cc1cc2nc(-c3ccc4c(c3)c(C3CCN(C5CNC5)CC3)nn4C)sc2c(-c2ccc(Cl)cc2)c1[C@H](OC(C)(C)C)C(=O)O` [Compound 29, (S)-2-(2-(3-(1-(azetidin-3-yl)piperidin-4-yl)-1-methyl-1H-indazol-5-yl)-7-(4-chlorophenyl)-5-methylbenzo[d]thiazol-6-yl)-2-(tert-butoxy)acetic acid], the EC50 (usually the concentration needed to bring the measured effect to its halfway point) was determined as 646 nM in assay [1], 823 nM in assay [2] and 52 nM in assay [3] (setting [5]).
In the case of `CC(=O)N1CC(N2CCC(c3nn(C)c4ccc(-c5nc6cc(C)c([C@H](OC(C)(C)C)C(=O)O)c(-c7ccc(Cl)cc7)c6s5)cc34)CC2)C1` [Compound 30, (S)-2-(2-(3-(1-(1-acetylazetidin-3-yl)piperidin-4-yl)-1-methyl-1H-indazol-5-yl)-7-(4-chlorophenyl)-5-methylbenzo[d]thiazol-6-yl)-2-(tert-butoxy)acetic acid], the EC50 in assay [1] came to 111 nM; in assay [2] it was 187 nM; in assay [3] (setting [4]), 12 nM.
In the case of `Cc1cc2nc(-c3ccc4c(c3)c(C3CCN(C5CN(C)C5)CC3)nn4C)sc2c(-c2ccc(Cl)cc2)c1[C@H](OC(C)(C)C)C(=O)O` [Compound 31, (S)-2-(tert-butoxy)-2-(7-(4-chlorophenyl)-5-methyl-2-(1-methyl-3-(1-(1-methylazetidin-3-yl)piperidin-4-yl)-1H-indazol-5-yl)benzo[d]thiazol-6-yl)acetic acid], the EC50 was 138 nM in assay [1], 236 nM in assay [2] and 12 nM in assay [3] (setting [4]).
As to `CC(=O)N1CC(N2CCC(c3nn(CCN(C)C)c4ccc(-c5nc6cc(C)c([C@H](OC(C)(C)C)C(=O)O)c(-c7ccc(Cl)cc7)c6s5)cc34)CC2)C1` [Compound 33, (S)-2-(2-(3-(1-(1-acetylazetidin-3-yl)piperidin-4-yl)-1-(2-(dimethylamino)ethyl)-1H-indazol-5-yl)-7-(4-chlorophenyl)-5-methylbenzo[d]thiazol-6-yl)-2-(tert-butoxy)acetic acid], the results for the EC50 in assay [1], in assay [2] and in assay [3] (setting [4]) were 587 nM, 1020 nM and 5 nM, respectively.
Consider `Cc1cc2nc(-c3ccc4[nH]nc(C5CCN(C6COC6)CC5)c4c3)sc2c(-c2ccc(Cl)cc2)c1[C@H](OC(C)(C)C)C(=O)O` [Compound 34, (S)-2-(tert-butoxy)-2-(7-(4-chlorophenyl)-5-methyl-2-(3-(1-(oxetan-3-yl)piperidin-4-yl)-1H-indazol-5-yl)benzo[d]thiazol-6-yl)acetic acid], for which the 50% effective concentration (EC50) is 968 nM in assay [1], 1170 nM in assay [2] and 31 nM in assay [3] (setting [5]).

Values taken from patent US10800772B2 (Gilead Sciences, Inc., priority 2016, dated 2020).
